Legend:
Homo sapiens = species: Homo sapiens; assay: Compound was tested for the inhibition of 4 uM ADP-induced platelet aggregation by using human platelet rich plasma; type: functional
Prostacyclin receptor [1] = target: T1, Prostacyclin receptor (Homo sapiens, UniProt P43119); assay: Compound was tested for prostacyclin (PGI-2) binding by displacement of [3H]iloprost from human platelets using conventional ligand binding assay
Prostacyclin receptor [2] = target: T1, Prostacyclin receptor; assay: Compound was tested for prostacyclin (PGI-2) binding by displacement of [3H]iloprost from human platelets.; details: concentration not given here

T1 sequence (P43119 whole entry): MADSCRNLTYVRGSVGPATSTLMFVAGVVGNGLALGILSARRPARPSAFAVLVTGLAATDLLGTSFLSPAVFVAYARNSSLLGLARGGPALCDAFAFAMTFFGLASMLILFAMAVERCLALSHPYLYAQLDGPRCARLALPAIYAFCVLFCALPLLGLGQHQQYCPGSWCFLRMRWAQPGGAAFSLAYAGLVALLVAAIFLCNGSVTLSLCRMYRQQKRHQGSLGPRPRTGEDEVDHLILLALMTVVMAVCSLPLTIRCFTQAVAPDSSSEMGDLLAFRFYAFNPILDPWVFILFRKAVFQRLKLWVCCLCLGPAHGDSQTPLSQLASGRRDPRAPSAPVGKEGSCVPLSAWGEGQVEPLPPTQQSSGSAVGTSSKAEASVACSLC

Row | IC50 (Homo sapiens) [nM] | IC50 (Prostacyclin receptor [1]) [nM] | inhibition (Prostacyclin receptor [2]) [%] | Compound
1 | 2400 | 2400 |  | O=C(O)COc1cccc2c1CCC(CON=C(c1ccccc1)c1ccccc1)C2 (stereo unspecified)
2 | 250 | 210 |  | O=C(O)COc1cccc2c1CCCC2CCON=C(c1ccccc1)c1ccccc1 (stereo unspecified)

Further lines, the compound ahead of its results:

Row | Compound | IC50 (Homo sapiens) [nM] | IC50 (Prostacyclin receptor [1]) [nM] | inhibition (Prostacyclin receptor [2]) [%]
3 | O=C(O)COc1cccc2c1CCCC2CCCCOC(c1ccccc1)c1ccccc1 (stereo unspecified) | 11000 | 4200 | 
4 | O=C(O)COc1cccc2c1CCC(CC(=O)NN(c1ccccc1)c1ccccc1)C2 (stereo unspecified) | 150 |  | 
5 | O=C(O)COc1cccc2c1CCCC2CCC(=O)NN(c1ccccc1)c1ccccc1 (stereo unspecified) | 57 | 10 | 
6 | O=C(O)COc1cccc2c1CCCC2CCCOC(c1ccccc1)c1ccccc1 (stereo unspecified) | 450 | 460 | 
7 | O=C(O)COc1cccc2c1CCC(CCCOC(c1ccccc1)c1ccccc1)C2 (stereo unspecified) | > 20000 | > 10000 | 25
8 | O=C(O)COc1cccc2c1CCC(CCOC(c1ccccc1)c1ccccc1)C2 (stereo unspecified) | > 20000 | 8000 | 
